Test results from patent publication US5559115A, “Oncogene function-inhibitory agent, method for inhibiting oncogene function, and treatment of cancer” (Terumo Kabushiki Kaisha, priority 1993, dated 1996).
In brackets after ≈: the same amount, converted by molar mass. Entries after “also recorded” stand apart in the source; their conditions may differ.

Key:
[1] = system: K-ras NRK cells; test: Propagation inhibitory effect on K-ras NRK cells; type: cell-based; settings: Rattus norvegicus, 72 h, 3 days, read-out: IC50, cell propagation
Procedure: (§1) Next, cells of different types were inoculated in wells of 12 wells plastic plate (Costar 3521, manufactured by Costar) at 2.0×10^4 /DMEM 1 ml/well, and the plate was incubated in an incubator of 5% CO2 for one day. III-121C was added to the thus incubated cells to different concentrations and incubation was continued for another 3 days. The number of cells was measured by repeating the above-described procedure to determine the concentration (IC50) of the III-121C required to inhibit the cell propagation to 50%.

[2] = system: NRK cells; test: Propagation inhibitory effect on NRK cells; type: cell-based; settings: Rattus norvegicus, 72 h, 3 days, read-out: IC50, cell propagation
Procedure: (§2) Normal rat kidney cell, NRK-49 (Dainihon Pharmaceutical K.K.) and normal mouse cell, NIH 3T3 (JCRB Cell Bank); and K-ras NIH 3T3, H-ras NIH 3T3, and N-ras NIH 3T3 (Tokyo University, Medical Science Institute, Japan) which are cell lines that have been transformed with Kirsten sarcoma virus, Harvey sarcoma virus, and neuroblastoma virus, respectively, were incubated at 37° C. in the similar manner.
as §1

[3] = system: K-ras-NIH 3T3 cells; test: Propagation inhibitory effect on K-ras-NIH 3T3 cells; type: cell-based; settings: Mus musculus, NIH3T3, 72 h; K-ras-NIH 3T3, 3 days; read-out: IC50, cell propagation
Procedure: as §2, §1

[4] = system: H-ras-NIH 3T3 cells; test: Propagation inhibitory effect on H-ras-NIH 3T3 cells; type: cell-based; settings: Mus musculus, NIH3T3, 72 h; H-ras-NIH 3T3, 3 days; read-out: IC50, cell propagation
Procedure: as §2, §1

[5] = system: RSV NRK cells; test: Propagation inhibitory effect on RSV NRK cells; type: cell-based; settings: Rattus norvegicus, 72 h, 33° C., 3 days, read-out: IC50, cell propagation
[6] = system: K-ras^ts-NRK cells; test: Activity to induce changes in cell morphology, K-ras^ts-NRK cells; type: cell-based, rat; settings: 2 days
Procedure: as §2
(§3) The effect of the III-121C on various types of cultured cells was evaluated by inoculating each type of cells in wells of 24 wells plastic plate (Costar 3524, manufactured by Costar) at 3×10^4 cells/1 ml medium/well; incubating the plate in an incubator of 5% CO2 for one day; and adding the III-121C sample to the cell cultures to observe the cell morphology for another two days.

[7] = system: K-ras-NRK cells; test: Activity to induce changes in cell morphology, K-ras-NRK cells; type: cell-based, rat; settings: 0.3 μg/ml, 2 days
Procedure: as §3
K-ras-NRK is a transformed cell line, and the cells appear round with its central portion raised.

[8] = system: K-ras-NIH 3T3 cells; test: Activity to induce changes in cell morphology, K-ras-NIH 3T3 cells; type: cell-based, mouse; settings: 0.3 μg/ml, 2 days
Procedure: as §2, §3
(§4) K-ras-NIH 3T3 and H-ras-NIH 3T3 are transformed cell lines, and the cells are elongated with projections or processes on their surface, and grow atop the other. N-ras-NIH 3T3 cells are also elongated and their projections or processes are even longer.

[9] = system: H-ras-NIH 3T3 cells; test: Activity to induce changes in cell morphology, H-ras-NIH 3T3 cells; type: cell-based, mouse; settings: 0.3 μg/ml, 2 days
Procedure: as §2, §3, §4

[10] = system: N-ras-NIH 3T3 cells; test: Activity to induce changes in cell morphology, N-ras-NIH 3T3 cells; type: cell-based, mouse; settings: 0.3 μg/ml, 2 days
Procedure: as §2, §3, §4

[11] = system: RSV^ts-NRK cells; test: Activity to induce changes in cell morphology, RSV^ts-NRK cells; type: cell-based, rat; settings: 0.3 μg/ml, 2 days
Procedure: as §2, §3
RSV^ts -NRK is a cell line that had been transformed with an src oncogene, and is temperature sensitive as in the case of K-ras^ts -NRK.

[12] = system: K-ras^ts-NRK cells; test: Effect on production of actin filaments, K-ras^ts-NRK cells; type: cell-based, rat; settings: 1 μg/ml, one day
Procedure: (§5) A cover glass with a diameter of 18 mm (manufactured by Matsunami Glass Industry K.K.) that had been washed with 100% ethanol, dried, and sterilized was placed in wells of 12 wells plastic plate, and the cells were inoculated in the wells at 3.0×10^4 /DMEM 1 ml/well. The plate was incubated in an incubator of 5% CO2 for 1 day. To the thus incubated cell culture was added 1 μg/ml of III-121C, and the incubation was continued for another one day. The cell culture was then fixed with paraformaldehyde. The fixed cell culture was reacted with rhodamine pharoidine reagent (Molecular Probe Inc.) to examine the cell morphology by fluorescence microscope with G filter (excitation, 546 nm).

[13] = system: K-ras-NRK cells; test: Effect on production of actin filaments, K-ras-NRK cells; type: cell-based, rat; settings: 1 μg/ml, one day
Procedure: as §5

[14] = system: K-ras-NIH 3T3 cells; test: Effect on production of actin filaments, K-ras-NIH 3T3 cells; type: cell-based, mouse; settings: 1 μg/ml, one day
Procedure: as §5

[15] = system: H-ras-NIH 3T3 cells; test: Effect on production of actin filaments, H-ras-NIH 3T3 cells; type: cell-based, mouse; settings: 1 μg/ml, one day
Procedure: as §5

[16] = system: K-ras-NRK tumor; test: Growth of K-ras-NRK tumor in nude mice; type: in vivo; settings: K-ras-NRK s.c., intraperitoneal, days 0, 2, 4 (FIG. 8)
Procedure: To 4 groups of nude mice (each group comprising 6 individuals) were subcutaneously inoculated 1×10^6 cells of K-ras-NRK on their back. Formation of a small tumor was recognized after 4 days from the inoculation, and intraperitoneal administration of III-121C at different doses was started on this day (day 0). III-121C was additionally administered after two days and four days from the start of the administration to measure the volume of the tumor. No III-121C was administered to the mice of the control group. The results are depicted in FIG. 8.

[17] = system: K-ras^ts-NRK cells; test: Action mechanism: morphology / M phase observation in K-ras^ts-NRK cells; type: cell-based, rat
Procedure: Before the addition of the III-121C, the cells grew atop the other and had projections or processes on their surface (FIG. 9(a)).
The procedure as described above was repeated by replacing the III-121C with 0.1 μg/ml of vinblastine, 0.1 μg/ml of vincristine and 0.1 μg/ml of colchicine, which are known as microtubule formation inhibitors.

[18] = system: K-ras-NRK cells; test: Action mechanism: flow-cytometric DNA content analysis of K-ras-NRK cells; type: cell-based, rat; settings: 24 hours; III-121C 0.3 and 1 μg/ml, vinblastine 0.1 μg/ml (FIG. 11)
Procedure: FIGS. 11(a) to (d) are graphs showing the results of flow-cytometric analysis wherein the number of cells is depicted in relation to their DNA content, upon addition of no reagent (FIG. 11(a)), 0.3 μg/ml of III-121C (FIG. 11(b)), 1 μg/ml of III-121C (FIG. 11(c)), and 0.1 μg/ml of vinblastine (FIG. 11(d)) to the K-ras NRK cell culture.
To the cells of K-ras-NRK in their propagation was added either one of III-121C and vinblastine. No reagent was added to the control cells. After 24 hours from the addition, the cells were fractionated with a cell sorter to examine the DNA quantity in relation to the number of the cells.

Q: `CCC12CC(C(=O)OC)=C3Nc4cc5c(cc4C34CCN(CC3OC31)C42)C1C(O5)C(O)C2(CC)CC(C(=O)OC)=C3Nc4c(cc(O)c(OC)c4OC)C34CCN1C42` (stereo not drawn) [III-121C] was tested. Which IC50 [1] did it give?
A: 0.4 µg/mL (≈ 0.503 µM)

Q: And the IC50 [2]?
A: 0.19 µg/mL (≈ 0.239 µM)

Q: What about the IC50 [3] of the same molecule?
A: 0.4 µg/mL (≈ 0.503 µM)

Q: And the IC50 [4]?
A: 0.48 µg/mL (≈ 0.604 µM)

Q: And the IC50 [5]?
A: 0.11 µg/mL (≈ 0.138 µM)

Q: What about the “change in cell morphology and growth habits” value ([6]; 33° C., 0.3 μg/ml) of the same molecule?
A: the cells changed their morphology and growth habits to those of normal cells

Q: And the “change in cell morphology and growth habits” value ([6]; 39° C.)?
A: the cell morphology and growth habits were the same as the K-ras^ts -NRK cells that had been incubated in the absence of III-121C

Q: And the “change in cell morphology and growth habits” value [7]?
A: the cells changed their morphology and growth habits to those of normal cells, and became flat with an increased area of contact

Q: What about the “change in cell morphology and growth habits” value [8] of the same molecule?
A: the cells changed their morphology and growth habits to those of normal NIH 3T3 cells, and became flat with an increased area of contact

Q: And the “change in cell morphology and growth habits” value [9]?
A: the cells changed their morphology and growth habits to those of normal NIH 3T3 cells, and became flat with an increased area of contact

Q: And the “change in cell morphology and growth habits” value [10]?
A: the cells changed their morphology and growth habits to those of normal NIH 3T3 cells, and became flat with an increased area of contact

Q: And the “change in cell morphology” value ([11]; 33° C.)?
A: changed their cell morphology to have a rounded appearance similar to the morphology of the normal NRK-49 cells

Q: What about the “change in cell morphology” value ([11]; 39° C.) of the same molecule?
A: changed their cell morphology to have a rounded appearance similar to the morphology of the normal NRK-49 cells

Q: And the “actin filaments / cell morphology” value [12]?
A: morphology of normal cells with longitudinally extending linear actin filaments

Q: And the “actin filaments / cell morphology” value [13]?
A: morphology of normal cells with longitudinally extending linear actin filaments

Q: And the “actin filaments / cell morphology” value [14]?
A: morphology of normal cells with longitudinally extending linear actin filaments

Q: What about the “actin filaments / cell morphology” value [15] of the same molecule?
A: morphology of normal cells with longitudinally extending linear actin filaments

Q: What about the tumor growth inhibition [16] of the same molecule?
A: the growth of the tumor was inhibited in a dose dependent manner; also recorded: growth suppression of tumors in living mammals

Q: And the anti-ras activity ([17]; 1 μg/ml, 33° C.)?
A: has an anti-ras activity

Q: What about the “change in cell morphology” value ([17]; 33° C., 1 μg/ml, after one day) of the same molecule?
A: the cells no longer grew atop the other and became flat

Q: And the “change in cell morphology and growth habits” value ([17]; 33° C., 1 μg/ml, after two days)?
A: such change in the cell morphology and growth habits were even more significant

Q: What about the “cell division inhibitory activity” value ([17]; compared with microtubule inhibitors) of the same molecule?
A: free from the cell division inhibitory activity; also recorded: not associated with the cell division inhibitory action

Q: And the “cell cycle / cell division inhibition” value [18]?
A: Absence of the cell division inhibitory activity

Q: And the “distribution of DNA quantity in cells” value [18]?
A: distribution of the DNA quantity in the cells was identical with that of the control cells
